Measurements reported in publication PMC6264278, “Corydaline Inhibits Multiple Cytochrome P450 and UDP-Glucuronosyltransferase Enzyme Activities in Human Liver Microsomes” (Molecules, 2011).

Target: T1, UGT1A9 (Homo sapiens, UniProt O60656)
T1 construct: using pooled human liver microsomes; tissue BD Gentest Co. H161; host or cells: pooled human liver microsomes
T1 sequence (O60656 26-530): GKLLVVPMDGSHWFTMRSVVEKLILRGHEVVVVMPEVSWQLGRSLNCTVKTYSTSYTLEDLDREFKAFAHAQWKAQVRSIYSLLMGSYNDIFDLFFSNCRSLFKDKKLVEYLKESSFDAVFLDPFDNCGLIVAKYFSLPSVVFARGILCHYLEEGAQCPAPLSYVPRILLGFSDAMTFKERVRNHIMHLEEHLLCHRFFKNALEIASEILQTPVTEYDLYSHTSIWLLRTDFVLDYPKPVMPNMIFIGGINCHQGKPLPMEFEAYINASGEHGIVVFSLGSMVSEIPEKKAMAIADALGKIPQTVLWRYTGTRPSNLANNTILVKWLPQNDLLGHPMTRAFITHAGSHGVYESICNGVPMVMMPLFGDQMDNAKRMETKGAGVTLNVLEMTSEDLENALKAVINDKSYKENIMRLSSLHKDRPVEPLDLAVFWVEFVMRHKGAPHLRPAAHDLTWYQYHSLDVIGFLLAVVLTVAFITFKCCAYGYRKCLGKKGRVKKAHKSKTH
Assay: UGT1A9 propofol glucuronidation inhibition in pooled human liver microsomes
Format: in vitro ADME
Experimental: The inhibitory potencies (IC50 values) of corydaline were also determined with UGT assays in the presence and absence of corydaline (final concentrations of 1–1,000 μM with acetonitrile concentration less than 0.5% v/v) using pooled human liver microsomes. 17β-Estradiol 3-glucuronidation, trifluoperazine glucuronidation, propofol glucuronidation, and azidothymidine glucuronidation activities were determined as probe activities for UGT1A1, UGT1A4, UGT1A9, and UGT2B7, respectively, using LC/MS/MS. Incubation mixtures were prepared in a total volume of 100 μL, as follows: Pooled human liver microsomes (0.2 mg/mL for 17β-estradiol, trifluoperazine and azidothymidine; 0.1 mg/mL for propofol), 2 mM UDPGA, 25 μg/mL alamethicin, 10 mM MgCl2, 50 mM tris buffer (pH 7.4), UGT-isoform specific probe substrate (20 μM 17β-estradiol for UGT1A1, 5 μM trifluoperazine for UGT1A4, 10 μM propofol for UGT1A9, or 100 μM azidothymidine for UGT2B7), and various concentrations of corydaline (1−1000 μM). Reactions were initiated by addition of UDPGA, and incubations were carried out at 37 °C in a shaking water bath for 30 min. […]
Glucuronides produced from UGT isoform-specific substrates were respectively determined by LC/MS/MS. […] Quantification was performed by SRM of the [M+H]^+ ion for trifluoperazine glucuronide and azidothymidine glucuronide or [M−H]^− for 17β-estradiol 3-glucuronide and propofol glucuronide and the related product ion for each metabolite.
Reactions were initiated by addition of NADPH at 37 °C and stopped after 15 min by placement of the incubation tubes on ice and addition of ice-cold methanol (100 μL) containing an internal standard (2.0 μg/mL ^13C6-4-hydroxydiclofenac for diclofenac, 0.5 μg/mL d3-4-hydroxymephenytoin for mephenytoin, or 0.5 μg/mL d9-1-hydroxy-bufuralol for bufuralol). The incubation mixtures were centrifuged at 13,000 × g for 5 min, and aliquots (5 μL) of the supernatants were analyzed by LC/MS/MS. […] Aliquots (5 μL) were analyzed by LC/MS/MS. […]

Ki (human liver microsomes, 10-30 μM propofol): 37.3 ± 14.4 µM | inhibition mode, UGT1A9 propofol glucuronidation (mixed competitive-noncompetitive equation, nonlinear regression): competitive | IC50 (pooled human liver microsomes (H161), 10 μM propofol, mean ± SD, n = 3): 39.4 ± 6 µM
SMILES: COc1cc2c(cc1OC)C1C(C)c3ccc(OC)c(OC)c3CN1CC2 (stereo not drawn) [Corydaline, 2,3,9,10-tetramethoxy-13-methyl-5,8,13,13a-tetrahydro-6H-isoquino[3,2-a]isoquinoline]
